Holding throughout (experiment): relative viability (nuclei count vs DMSO), 5 days (fraction); higher = more cells survive
Compound in the assay “Omipalisib + Lapatinib”: COc1ncc(-c2ccc3nccc(-c4ccnnc4)c3c2)cc1NS(=O)(=O)c1ccc(F)cc1F [Omipalisib] + CS(=O)(=O)CCNCc1ccc(-c2ccc3ncnc(Nc4ccc(OCc5cccc(F)c5)c(Cl)c4)c3c2)o1 [Lapatinib] (partner 2 µM)
The procedure, abridged: (§1)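 Lung cancer cell lines were seeded in 1536-well plates and dosed by pin tool the next day, with either a single drug or a fixed anchor-drug dose combined with five library-drug doses (not always all listed) spaced in √10 steps. Five days later, one step fixed the cells and stained their nuclei (final 0.05% Triton X-100, 1% formaldehyde, 1 ug/ml Hoechst), and nuclei were counted on 4× images. Relative viability is the nuclei count in treated wells divided by the count in vehicle wells, and each value is the median of duplicate plates.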

Compound in the assay “Omipalisib + Pictilisib”: COc1ncc(-c2ccc3nccc(-c4ccnnc4)c3c2)cc1NS(=O)(=O)c1ccc(F)cc1F [Omipalisib] + CS(=O)(=O)N1CCN(Cc2cc3nc(-c4cccc5[nH]ncc45)nc(N4CCOCC4)c3s2)CC1 [Pictilisib] (partner 1 µM)
The procedure, abridged: as §1

Compound in the assay “Omipalisib + Linsitinib”: COc1ncc(-c2ccc3nccc(-c4ccnnc4)c3c2)cc1NS(=O)(=O)c1ccc(F)cc1F [Omipalisib] + C[C@]1(O)C[C@@H](c2nc(-c3ccc4ccc(-c5ccccc5)nc4c3)c3c(N)nccn32)C1 [Linsitinib] (partner 1 µM)
The method in brief:
as §1

Compound in the assay “Omipalisib + Tozasertib”: COc1ncc(-c2ccc3nccc(-c4ccnnc4)c3c2)cc1NS(=O)(=O)c1ccc(F)cc1F [Omipalisib] + Cc1cc(Nc2cc(N3CCN(C)CC3)nc(Sc3ccc(NC(=O)C4CC4)cc3)n2)n[nH]1 [Tozasertib] (partner 0.1 µM)
The method in brief: as §1

Compound in the assay “Omipalisib + AZD7762”: COc1ncc(-c2ccc3nccc(-c4ccnnc4)c3c2)cc1NS(=O)(=O)c1ccc(F)cc1F [Omipalisib] + NC(=O)Nc1cc(-c2cccc(F)c2)sc1C(=O)N[C@H]1CCCNC1 [AZD7762] (partner 0.2 µM)
The procedure, abridged: as §1

Compound in the assay “Omipalisib + Olaparib”: COc1ncc(-c2ccc3nccc(-c4ccnnc4)c3c2)cc1NS(=O)(=O)c1ccc(F)cc1F [Omipalisib] + O=C(c1cc(Cc2n[nH]c(=O)c3ccccc23)ccc1F)N1CCN(C(=O)C2CC2)CC1 [Olaparib] (partner 8 µM)
The procedure, abridged:
as §1

As to EPLC-272H, the relative viability in the assay with Omipalisib + Lapatinib (first compound 0.0003 µM) is 0.908; with Omipalisib + Lapatinib (first compound 0.003 µM), 0.535; with Omipalisib + Lapatinib (first compound 0.03 µM), 0.562; in the assay with Omipalisib + Pictilisib (first compound 0.0003 µM), 0.403; with Omipalisib + Pictilisib (first compound 0.003 µM) it was 0.377; in the assay with Omipalisib + Pictilisib (first compound 0.03 µM), 0.298. Besides, the relative viability in the assay with Omipalisib + Linsitinib (first compound 0.0003 µM) was determined as 1.38; with Omipalisib + Linsitinib (first compound 0.003 µM), 0.893; with Omipalisib + Linsitinib (first compound 0.03 µM) it was 0.248; in the assay with Omipalisib + Tozasertib (first compound 0.0003 µM) it was 0.254; in the assay with Omipalisib + Tozasertib (first compound 0.003 µM), 0.186; with Omipalisib + Tozasertib (first compound 0.03 µM) it was 0.165. The relative viability in the assay with Omipalisib + AZD7762 (first compound 0.0003 µM) turned out to be 0.149; with Omipalisib + AZD7762 (first compound 0.003 µM), 0.213; with Omipalisib + AZD7762 (first compound 0.03 µM), 0.167; with Omipalisib + Olaparib (first compound 0.0003 µM), 0.712; with Omipalisib + Olaparib (first compound 0.003 µM) it was 0.36; with Omipalisib + Olaparib (first compound 0.03 µM), 0.131.

Regarding HARA, the relative viability with Omipalisib + Lapatinib (first compound 0.0003 µM) amounted to 0.613; with Omipalisib + Lapatinib (first compound 0.003 µM) it was 0.659; with Omipalisib + Lapatinib (first compound 0.03 µM), 0.326; with Omipalisib + Pictilisib (first compound 0.0003 µM), 0.464; with Omipalisib + Pictilisib (first compound 0.003 µM), 0.661; in the assay with Omipalisib + Pictilisib (first compound 0.03 µM) it was 0.354. Besides, the relative viability with Omipalisib + Linsitinib (first compound 0.0003 µM) is 0.949; with Omipalisib + Linsitinib (first compound 0.003 µM), 0.691; in the assay with Omipalisib + Linsitinib (first compound 0.03 µM) it was 0.275; with Omipalisib + Tozasertib (first compound 0.0003 µM), 0.11; with Omipalisib + Tozasertib (first compound 0.003 µM) it was 0.0779; with Omipalisib + Tozasertib (first compound 0.03 µM), 0.0711. Moreover, the relative viability with Omipalisib + AZD7762 (first compound 0.0003 µM) worked out at 0.384; with Omipalisib + AZD7762 (first compound 0.003 µM), 0.461; in the assay with Omipalisib + AZD7762 (first compound 0.03 µM), 0.334; with Omipalisib + Olaparib (first compound 0.0003 µM), 0.699; with Omipalisib + Olaparib (first compound 0.003 µM), 0.512; with Omipalisib + Olaparib (first compound 0.03 µM), 0.214.

With EMC-BAC-2, the relative viability amounted to 0.726 with Omipalisib + Lapatinib (first compound 0.0003 µM); 0.611 with Omipalisib + Lapatinib (first compound 0.003 µM); 0.608 with Omipalisib + Lapatinib (first compound 0.03 µM); 0.514 with Omipalisib + Pictilisib (first compound 0.0003 µM); 0.465 with Omipalisib + Pictilisib (first compound 0.003 µM); 0.432 in the assay with Omipalisib + Pictilisib (first compound 0.03 µM). In addition, the relative viability with Omipalisib + Linsitinib (first compound 0.0003 µM) was found to be 0.797; with Omipalisib + Linsitinib (first compound 0.003 µM), 0.693; with Omipalisib + Linsitinib (first compound 0.03 µM), 0.438; with Omipalisib + Tozasertib (first compound 0.0003 µM), 0.266; with Omipalisib + Tozasertib (first compound 0.003 µM) it was 0.27; with Omipalisib + Tozasertib (first compound 0.03 µM), 0.261. Further, the relative viability in the assay with Omipalisib + AZD7762 (first compound 0.0003 µM) is 0.989; with Omipalisib + AZD7762 (first compound 0.003 µM), 0.719; with Omipalisib + AZD7762 (first compound 0.03 µM), 0.515; in the assay with Omipalisib + Olaparib (first compound 0.0003 µM), 0.391; with Omipalisib + Olaparib (first compound 0.003 µM) it was 0.407; in the assay with Omipalisib + Olaparib (first compound 0.03 µM), 0.252.

In the case of LCLC-97TM1, the relative viability with Omipalisib + Lapatinib (first compound 0.0003 µM) was found to be 0.976; in the assay with Omipalisib + Lapatinib (first compound 0.003 µM), 0.323; with Omipalisib + Lapatinib (first compound 0.03 µM), 0.223; in the assay with Omipalisib + Pictilisib (first compound 0.0003 µM), 0.181; in the assay with Omipalisib + Pictilisib (first compound 0.003 µM) it was 0.15; with Omipalisib + Pictilisib (first compound 0.03 µM), 0.166. The relative viability in the assay with Omipalisib + Linsitinib (first compound 0.0003 µM) stood at 0.172; with Omipalisib + Linsitinib (first compound 0.003 µM) it was 0.135; in the assay with Omipalisib + Linsitinib (first compound 0.03 µM), 0.134; in the assay with Omipalisib + Tozasertib (first compound 0.0003 µM), 0.169; with Omipalisib + Tozasertib (first compound 0.003 µM) it was 0.119; in the assay with Omipalisib + Tozasertib (first compound 0.03 µM), 0.0744. Also, the relative viability with Omipalisib + AZD7762 (first compound 0.0003 µM) amounted to 0.158; in the assay with Omipalisib + AZD7762 (first compound 0.003 µM) it was 0.36; with Omipalisib + AZD7762 (first compound 0.03 µM), 0.116; with Omipalisib + Olaparib (first compound 0.0003 µM), 0.383; in the assay with Omipalisib + Olaparib (first compound 0.003 µM), 0.291; in the assay with Omipalisib + Olaparib (first compound 0.03 µM), 0.0739.

On to NCI-H1944, for which the relative viability in the assay with Omipalisib + Lapatinib (first compound 0.0003 µM) amounted to 0.785; with Omipalisib + Lapatinib (first compound 0.003 µM) it was 0.493; with Omipalisib + Lapatinib (first compound 0.03 µM), 0.385; with Omipalisib + Pictilisib (first compound 0.0003 µM), 0.363; with Omipalisib + Pictilisib (first compound 0.003 µM), 0.301; with Omipalisib + Pictilisib (first compound 0.03 µM), 0.28. Moreover, the relative viability with Omipalisib + Linsitinib (first compound 0.0003 µM) stood at 1.21; with Omipalisib + Linsitinib (first compound 0.003 µM), 0.854; with Omipalisib + Linsitinib (first compound 0.03 µM) it was 0.481; in the assay with Omipalisib + Tozasertib (first compound 0.0003 µM), 0.237; with Omipalisib + Tozasertib (first compound 0.003 µM) it was 0.217; in the assay with Omipalisib + Tozasertib (first compound 0.03 µM), 0.192. Moreover, the relative viability with Omipalisib + AZD7762 (first compound 0.0003 µM) amounted to 0.406; with Omipalisib + AZD7762 (first compound 0.003 µM) it was 0.345; in the assay with Omipalisib + AZD7762 (first compound 0.03 µM), 0.262; in the assay with Omipalisib + Olaparib (first compound 0.0003 µM), 0.334; with Omipalisib + Olaparib (first compound 0.003 µM) it was 0.349; with Omipalisib + Olaparib (first compound 0.03 µM) it was 0.203.

For the cell line NCI-H2405, the relative viability with Omipalisib + Lapatinib (first compound 0.0003 µM) worked out at 0.949; in the assay with Omipalisib + Lapatinib (first compound 0.003 µM) it was 0.6; with Omipalisib + Lapatinib (first compound 0.03 µM), 0.303; with Omipalisib + Pictilisib (first compound 0.0003 µM) it was 0.433; with Omipalisib + Pictilisib (first compound 0.003 µM), 0.389; in the assay with Omipalisib + Pictilisib (first compound 0.03 µM), 0.355. The relative viability with Omipalisib + Linsitinib (first compound 0.0003 µM) was 0.931; with Omipalisib + Linsitinib (first compound 0.003 µM) it was 0.68; in the assay with Omipalisib + Linsitinib (first compound 0.03 µM) it was 0.387; with Omipalisib + Tozasertib (first compound 0.0003 µM) it was 0.76; with Omipalisib + Tozasertib (first compound 0.003 µM) it was 0.648; with Omipalisib + Tozasertib (first compound 0.03 µM), 0.359. The relative viability came out at 0.725 in the assay with Omipalisib + AZD7762 (first compound 0.0003 µM); 0.484 with Omipalisib + AZD7762 (first compound 0.003 µM); 0.312 with Omipalisib + AZD7762 (first compound 0.03 µM); 0.854 in the assay with Omipalisib + Olaparib (first compound 0.0003 µM); 0.679 in the assay with Omipalisib + Olaparib (first compound 0.003 µM); 0.388 in the assay with Omipalisib + Olaparib (first compound 0.03 µM).

In the case of NCI-H1975, the relative viability with Omipalisib + Lapatinib (first compound 0.0003 µM) worked out at 0.801; with Omipalisib + Lapatinib (first compound 0.003 µM) it was 0.613; with Omipalisib + Lapatinib (first compound 0.03 µM) it was 0.22; with Omipalisib + Pictilisib (first compound 0.0003 µM) it was 0.321; with Omipalisib + Pictilisib (first compound 0.003 µM), 0.277; with Omipalisib + Pictilisib (first compound 0.03 µM), 0.193. Moreover, the relative viability with Omipalisib + Linsitinib (first compound 0.0003 µM) was determined as 0.857; in the assay with Omipalisib + Linsitinib (first compound 0.003 µM), 0.614; with Omipalisib + Linsitinib (first compound 0.03 µM) it was 0.206; with Omipalisib + Tozasertib (first compound 0.0003 µM), 0.786; with Omipalisib + Tozasertib (first compound 0.003 µM) it was 0.502; with Omipalisib + Tozasertib (first compound 0.03 µM), 0.23. Moreover, the relative viability with Omipalisib + AZD7762 (first compound 0.0003 µM) amounted to 0.711; in the assay with Omipalisib + AZD7762 (first compound 0.003 µM) it was 0.446; in the assay with Omipalisib + AZD7762 (first compound 0.03 µM), 0.305; in the assay with Omipalisib + Olaparib (first compound 0.0003 µM) it was 0.882; with Omipalisib + Olaparib (first compound 0.003 µM), 0.521; with Omipalisib + Olaparib (first compound 0.03 µM), 0.239.

HCC-78: the relative viability with Omipalisib + Lapatinib (first compound 0.0003 µM) was 0.329; with Omipalisib + Lapatinib (first compound 0.003 µM) it was 0.567; in the assay with Omipalisib + Lapatinib (first compound 0.03 µM), 0.386; in the assay with Omipalisib + Pictilisib (first compound 0.0003 µM), 0.198; in the assay with Omipalisib + Pictilisib (first compound 0.003 µM), 0.183; with Omipalisib + Pictilisib (first compound 0.03 µM), 0.189. Besides, the relative viability with Omipalisib + Linsitinib (first compound 0.0003 µM) is 0.389; with Omipalisib + Linsitinib (first compound 0.003 µM), 0.358; with Omipalisib + Linsitinib (first compound 0.03 µM), 0.24; with Omipalisib + Tozasertib (first compound 0.0003 µM) it was 0.327; with Omipalisib + Tozasertib (first compound 0.003 µM), 0.328; in the assay with Omipalisib + Tozasertib (first compound 0.03 µM), 0.21. The relative viability in the assay with Omipalisib + AZD7762 (first compound 0.0003 µM) stood at 0.593; with Omipalisib + AZD7762 (first compound 0.003 µM), 0.508; in the assay with Omipalisib + AZD7762 (first compound 0.03 µM), 0.281; with Omipalisib + Olaparib (first compound 0.0003 µM) it was 0.665; in the assay with Omipalisib + Olaparib (first compound 0.003 µM), 0.542; with Omipalisib + Olaparib (first compound 0.03 µM), 0.298.

The record behind these values is the supplement of paper PMC10307832.
